These results are taken from patent US6242476A, “Leukotriene A4 hydrolase inhibitors” (Santen Pharmaceutical Co., Ltd., priority 1997, dated 2001).

The target in this experiment is T1, LTA4 hydrolase (Cavia porcellus, UniProt P19602).
T1 construct: prepared by extracting from guinea pig lung without purification; from tissue; host or cells: lung of Hartley guinea pig
T1 sequence (P19602 1-611): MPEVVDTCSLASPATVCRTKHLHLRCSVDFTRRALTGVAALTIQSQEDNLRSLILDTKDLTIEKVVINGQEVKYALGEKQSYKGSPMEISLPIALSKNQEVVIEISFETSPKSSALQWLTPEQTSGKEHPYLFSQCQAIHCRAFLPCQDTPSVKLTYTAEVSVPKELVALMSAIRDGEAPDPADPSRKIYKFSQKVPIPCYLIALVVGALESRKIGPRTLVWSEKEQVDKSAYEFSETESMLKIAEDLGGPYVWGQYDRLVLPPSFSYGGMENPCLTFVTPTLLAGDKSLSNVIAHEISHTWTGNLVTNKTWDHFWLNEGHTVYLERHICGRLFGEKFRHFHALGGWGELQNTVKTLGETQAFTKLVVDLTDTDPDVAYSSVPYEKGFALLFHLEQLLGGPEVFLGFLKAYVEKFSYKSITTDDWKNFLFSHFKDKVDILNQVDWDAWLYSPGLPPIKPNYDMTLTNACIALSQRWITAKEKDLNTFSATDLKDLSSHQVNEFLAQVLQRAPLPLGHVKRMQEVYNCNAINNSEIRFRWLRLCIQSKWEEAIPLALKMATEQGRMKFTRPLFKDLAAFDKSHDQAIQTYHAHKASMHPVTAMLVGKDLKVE
The experiment in a line: Inhibition of LTA4 hydrolase: LTB4 produced from LTA4 by enzyme preparation from guinea pig lung (HPLC). The class given is biochemical. Conditions: guinea pig lung enzyme preparation 0.4-0.6 mg protein; HEPES 50 mM, pH 7.8; LTA4 63 μM; DTT 3 mM; 37° C., one minute; read-out: IC50 (concentration of the compounds required to inhibit LTA4 hydrolase activity by 50%). As to the method:
Izumi et al. had reported a method of measuring LTA4 hydrolase activity by measuring an amount of LTB4 produced by an enzymatic reaction using LTA4 as a substrate (Biochem. Biophys. Res. Commun., 135, 139-145 (1986)). Effects of the present compounds on LTA4 hydrolase were examined according to the method described in the literature.
An enzyme preparation used in this pharmacological test was prepared by extracting from guinea pig lung without purification according to the method of Izumi et al. (Biochem. Biophys. Res. Commun., 135, 139-145 (1986)) and the method of Evans et al. (Biochem. Biophys. Acta, 840, 43-50 (1985)). The experimental method is as follows:
Lungs were excised from a Hartley guinea pig (body weight: 330 g). The lungs were homogenized in phosphoric acid buffer (50 mM, pH 7.4, containing 1 mM ethylenediaminetetraacetic acid (EDTA) and 1 mM dithiothreitol (DTT) having weight three times that of the lungs under ice-cooling. The homogenate was centrifuged at low speed (800×g) for 20 minutes, centrifuged at high speed (10,000×g) for 20 minutes and ultracentrifuged (100,000×g) for 60 minutes to give a supernatant. The supernatant was brought to 40% saturation by adding a saturated aqueous ammonium sulfate solution (pH 7.0-7.2, containing 1 mM DTT) dropwise under ice-cooling and centrifuged at high speed (10,000×g) for 20 minutes. The resulting supernatant was brought to 70% saturation by adding a saturated aqueous ammonium sulfate solution (pH 7.0-7.2, containing 1 mM DTT) dropwise and centrifuged at high speed (10,000×g) for 20 minutes. The obtained pellet was dissolved in 2 ml of Tris-acetic acid buffer (20 mM, pH 7.8, containing 1 mM DTT) and dialyzed in 2 liters of the solution to give the enzyme preparation.
LTA4 used, which is the substrate, was prepared by hydrolyzing LTA4 methyl ester and dissolved in ethanol.
In order to examine effects of the test compounds on the enzyme preparation, reactions were performed under the following condition using mixed solutions consisting of the composition shown in Table 1. […]
HEPES buffer 50 mM, pH 7.8
Enzyme preparation 0.4-0.6 mg protein
DTT aqueous solution 3 mM
Test compounds 10^-8 -10^-3 M
The above-mentioned solution (50 μl) was incubated at 37° C. for one minute. To the reaction mixture was added 100 μl of a mixed liquid of acetonitrile-ethanol-acetic acid (150:50:3, volume ratio) under ice-cooling. The mixture was allowed to stand at -20° C. for 30 minutes and centrifuged at high speed (10,000×g) for five minutes to give a supernatant. An amount of LTB4 produced in the supernatant was measured by high-speed liquid chromatography.
The degree of the inhibitory effect of each test compound on LTA4 hydrolase is expressed by the inhibition rate calculated by the following equation. [formula]
A: amount of LTB4 formed in the absence of the test compound
B: amount of LTB4 formed in the presence of the test compound
The results are represented in concentration of the compounds required to inhibit LTA4 hydrolase activity by 50%, i.e., IC50.
For the molecule `CC(C)c1ccc(CS[C@@H]2C[C@@H](C(=O)O)N(C(=O)[C@H](C)CS)C2)cc1` [Compound d, (4R)-4-(4-isopropylbenzylthio)-1-[(2S)-3-mercapto-2-methylpropionyl]-L-proline], the IC50 came to 290 nM.

`CCCCc1ccc(CS[C@H]2C[C@@H](C(=O)O)N(C(=O)[C@H](C)CS)C2)cc1` [Compound f, (4S)-4-(4-butylbenzylthio)-1-[(2S)-3-mercapto-2-methylpropionyl]-L-proline]: the IC50 turned out to be 31 nM.

As for `CC(C)c1ccc(CS[C@H]2C[C@@H](C(=O)O)N(C(=O)[C@H](C)CS)C2)cc1` [Compound b, (4S)-4-(4-isopropylbenzylthio)-1-[(2S)-3-mercapto-2-methylpropionyl]-L-proline], the IC50 worked out at 52 nM.

For the molecule `CC(C)c1ccc(CO[C@@H]2C[C@@H](C(=O)O)N(C(=O)[C@H](C)CS)C2)cc1` [Compound e, (4R)-4-(4-isopropylbenzyloxy)-1-[(2S)-3-mercapto-2-methylpropionyl]-L-proline], the IC50 turned out to be 800 nM.

As to `C[C@H](CS)C(=O)N1C[C@@H](SCc2ccc(C3CCCCC3)cc2)C[C@H]1C(=O)O` [Compound h, (4S)-4-(4-cyclohexylbenzylthio)-1-[(2S)-3-mercapto-2-methylpropionyl]-L-proline], the IC50 turned out to be 34 nM.

Regarding `CC(C)c1ccc(CCS[C@H]2C[C@@H](C(=O)O)N(C(=O)[C@H](C)CS)C2)cc1` [Compound c, (4S)-4-(4-isopropylphenyethylthio)-1-[(2S)-3-mercapto-2-methylpropionyl]-L-proline], the IC50 was determined as 790 nM.

As for `CSc1ccc(CS[C@H]2C[C@@H](C(=O)O)N(C(=O)[C@H](C)CS)C2)cc1` [Compound g, 1-[(2S)-3-mercapto-2-methylpropionyl]-(4S)-4-[4-(methylthio)benzylthio]-L-proline], the IC50 was found to be 120 nM.

Regarding `Cc1ccccc1CS[C@H]1C[C@@H](C(=O)O)N(C(=O)[C@H](C)CS)C1` [Compound a, 1-[(2S)-3-mercapto-2-methylpropionyl]-(4S)-4-(2-methylbenzylthio)-L-proline], the IC50 is 840 nM.
